Results as given in US20100291196A1, “METHOD OF TREATMENT OF AUTISM SPECTRUM DISORDER WITH LIPOSOMAL REDUCED GLUTATHIONE” (priority 2005, published 2010).

Columns and labels:
children with autism = conditions: cited from earlier work
[1] = tested on: methionine cycle function; conditions: for improvement with known intermediates and support supplements of the methionine cycle: Case 3, supplements taken together in the month before liposomal glutathione; for blood pressure after initiating the therapies / how the patient felt a few days after initiating the therapies: in vivo
Description: The elevation of histamine is also an indicator of decreased methylation function as it is inactivated by histamine-methyl transferase.
During the month prior to evaluation the MM initiated therapy with SAMe, folate, betaine (trimethyl glycine), N-acetylcysteine and B12 by injection and oral glutathione (neat, not in the form of the invention).

[2] = 3 grams by oral ingestion; cited from earlier work
children = test: Practical experience and clinical observation of children using methylcobalamin by injection; type: in vivo, human
[3] = 800 μg folinic acid and 1000 mg betaine twice daily, 3 months
[4] = after a month of injection therapy
[5] = second intervention, injectable methylcobalamin added to folinic acid and betaine

Molecule	improvement with known intermediates and support supplements of the methionine cycle [1]	blood pressure after initiating the therapies [1]	how the patient felt a few days after initiating the therapies [1]	further results
Nc1nc(=O)c2c([nH]1)NCC(CNc1ccc(C(=O)N[C@@H](CCC(=O)O)C(=O)O)cc1)N2C=O (mixture of isomers) [folinic acid]				methionine cycle metabolites versus concentrations in controls (children with autism; [3]): effective in normalizing; total GSH (tGSH) or GSSG concentrations or tGSH:GSSG ratio (children with autism; [3]): improved but did not normalize
CC(=O)N[C@@H](CS)C(=O)O [N-acetylcysteine]	did not improve	170/120	felt worse	
C[S+](CC[C@H](N)C(=O)[O-])C[C@H]1O[C@@H](n2cnc3c(N)ncnc32)[C@H](O)[C@@H]1O (stereo partly shown) [SAMe, S-Adenosylmethionine]	did not improve	170/120	felt worse	
C[N+](C)(C)CC(=O)O [betaine, trimethyl glycine]		170/120	felt worse	
Nc1nc2ncc(CNc3ccc(C(=O)N[C@@H](CCC(=O)O)C(=O)O)cc3)nc2c(=O)[nH]1 [folic acid]	did not improve	170/120	felt worse	
N[C@@H](CCC(=O)N[C@@H](CS)C(=O)NCC(=O)O)C(=O)O [glutathione, gamma-glutamyl-cysteinyl-glycine]	did not improve	170/120	felt worse	plasma glutathione levels [2]: does not elevate
C/C1=C2/[N-][C@H]([C@H](CC(N)=O)[C@@]2(C)CCC(=O)NC[C@@H](C)OP(=O)([O-])O[C@H]2[C@@H](O)[C@@H](n3cnc4cc(C)c(C)cc43)O[C@@H]2CO)[C@]2(C)N=C(/C(C)=C3N=C(/C=C4N=C1[C@@H](CCC(N)=O)C\4(C)C)[C@@H](CCC(N)=O)[C@]\3(C)CC(N)=O)[C@@H](CCC(N)=O)[C@]2(C)CC(N)=O.[CH3-].[Co+3] [methylcobalamin]				GSSG (children with autism; [4]): decreased; level of total GSH (tGSH) (children with autism; [4]): increased; tGSH:GSSG ratio (glutathione redox profile) (children with autism; [4]): normalization; speech and cognition (children with autism; injection therapy, children with autism): improvement in speech and cognition; concentration of adenosine and GSSG (children with autism; [5]): further decrease; concentrations of methionine, cysteine, tGSH and SAM:SAH and tGSH:GSSG ratios (children with autism; [5]): further increase; irritability (children; many children, methylcobalamin by injection): substantially increased irritability; SAH (children; methylcobalamin by itself, preliminary data): can cause an increase
cyanocobalamin [B12 (cyanocobalamin)]	did not improve	170/120	felt worse	
